From patent publication US20090069302A1 (SMITHKLINE BEECHAM CORPORATION, priority 2006, published 2009)

How the values were obtained:
[1] = test system: CD rats; test: Effect on GLP-1 secretion in CD rats, intracolonic injection; format: in vivo, rat; conditions: anesthetized CD rats, 2.5 mg intracolonic
Procedure: Twelve ten week old (six per group) anesthetized normal CD rats were dosed with vehicle (0.5% HPMC/0.1% Tween80) or 2.5 mg Example 9 through intracolonic injection at 0 time point after a control blood sample was collected. Blood samples were collected at 5, 15, 30 and 60 minutes after dosing. Plasma active, and […] total GLP-1 were measured (ELISA kits, LINCO), and values were converted to % of controls. […] The results are listed in Tables 2a and 2b, and graphically represented in FIGS. 1a and 1b, respectively.

[2] = test system: GK rats; test: Sixteen day chronic intracolonic dosing study in GK rats (insulin, glucose, glucagon); format: in vivo, rat; conditions: 0.3 mg/kg QD intracolonic
Excerpt: (§1) The results are listed in Tables 4a and 4b, and graphically represented in FIGS. 3a and 3b, respectively.

[3] = target: T1, AXOR109 (Homo sapiens, UniProt Q8TDU6); test: Human AXOR109/Melanophore Assay; format: cell-based; conditions: melanophore assay
T1 construct: expressed in transfected cells; host or cells: melanophore cells, transfected by electroporation
T1 sequence (Q8TDU6 1-330): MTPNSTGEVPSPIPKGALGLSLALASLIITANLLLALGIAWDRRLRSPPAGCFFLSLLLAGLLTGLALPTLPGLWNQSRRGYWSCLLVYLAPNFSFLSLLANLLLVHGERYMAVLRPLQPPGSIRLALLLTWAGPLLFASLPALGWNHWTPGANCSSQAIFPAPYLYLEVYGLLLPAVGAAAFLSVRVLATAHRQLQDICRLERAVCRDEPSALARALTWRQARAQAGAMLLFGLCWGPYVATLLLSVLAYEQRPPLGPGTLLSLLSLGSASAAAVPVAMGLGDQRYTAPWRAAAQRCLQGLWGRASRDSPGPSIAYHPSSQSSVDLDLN
Method in brief: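 Readout is melanosome dispersion in melanophores electroporated with human AXOR109, in buffer containing 10 nM melatonin and 1% DMSO. Transmittance was read before and after 1 h compound exposure across 11-point 3-fold dilutions. Response was normalized to 200 nM alpha-MSH as system max, and pEC50 was obtained from a Hill fit.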

[4] = test system: GK rats; test: Glucose tolerance test in the chronic study in GK rats; format: in vivo, rat; conditions: treated versus vehicle group, in words
[5] = test system: GK rats; test: as above; format: in vivo, rat; design: glucose in glucose tolerance test: unit not given here; conditions: for glucose in glucose tolerance test: 0.3 mg/kg
Procedure: as §1
In the same chronic study in GK rats as in Tables 4a and 4b, an intravenous glucose tolerance test was performed on days 1, 3, 9, and 16.

[6] = 0 min (control sample before dosing)

**Q.** With `COc1ccc(S(=O)(=O)N2CCCN(S(=O)(=O)c3ccc(OC)c(OC)c3)CC2)cc1OC` [Example 9, 1,4-bis{[3,4-bis(methyloxy)phenyl]sulfonyl}hexahydro-1H-1,4-diazepine] as the molecule, how does the “Portal Vein Active GLP-1 Levels (% of Controls)” value [1, 6] read?
**A.** 100.00 % of Controls

**Q.** What about the “Portal Vein Total GLP-1 Levels (% of Controls)” value [1, 6] of the same molecule?
**A.** 100.00 % of Controls

**Q.** What about the “Portal Vein Active GLP-1 Levels (% of Controls)” value ([1]; 5 min) of the same molecule?
**A.** 175.27 % of Controls

**Q.** What about the “Portal Vein Total GLP-1 Levels (% of Controls)” value ([1]; 5 min) of the same molecule?
**A.** 182.84 % of Controls

**Q.** What about the “Portal Vein Active GLP-1 Levels (% of Controls)” value ([1]; 15 min) of the same molecule?
**A.** 352.50 % of Controls

**Q.** What about the “Portal Vein Total GLP-1 Levels (% of Controls)” value ([1]; 15 min) of the same molecule?
**A.** 308.38 % of Controls

**Q.** And the “Portal Vein Active GLP-1 Levels (% of Controls)” value ([1]; 30 min)?
**A.** 298.49 % of Controls

**Q.** What about the “Portal Vein Total GLP-1 Levels (% of Controls)” value ([1]; 30 min) of the same molecule?
**A.** 263.34 % of Controls

**Q.** What about the “Portal Vein Active GLP-1 Levels (% of Controls)” value ([1]; 60 min) of the same molecule?
**A.** 286.95 % of Controls

**Q.** And the “Portal Vein Total GLP-1 Levels (% of Controls)” value ([1]; 60 min)?
**A.** 246.00 % of Controls

**Q.** What about the “active and total GLP-1 level compared to controls” value ([1]; in words) of the same molecule?
**A.** higher level of active and total GLP-1

**Q.** What about the “glucagon (pM)” value ([2]; day 3) of the same molecule?
**A.** 21.31 pM

**Q.** What about the “glucose” value ([2]; day 3) of the same molecule?
**A.** 144.20 mg/dL

**Q.** What about the “insulin (pM)” value ([2]; day 3) of the same molecule?
**A.** 223.24 pM

**Q.** And the insulin levels ([2]; day 3 and day 9, in words)?
**A.** normal insulin levels

**Q.** What about the “glucagon (pM)” value ([2]; day 9) of the same molecule?
**A.** 21.67 pM

**Q.** And the “glucose” value ([2]; day 9)?
**A.** 131.00 mg/dL

**Q.** What about the “insulin (pM)” value ([2]; day 9) of the same molecule?
**A.** 240.29 pM

**Q.** And the “glucagon (pM)” value ([2]; day 16)?
**A.** 24.67 pM

**Q.** What about the “glucose” value ([2]; day 16) of the same molecule?
**A.** 169.00 mg/dL

**Q.** What about the “insulin (pM)” value ([2]; day 16) of the same molecule?
**A.** 108.09 pM

**Q.** What about the glucagon levels ([2]; day 16, in words) of the same molecule?
**A.** no increase in glucagons

**Q.** What about the “glucagon (pM)” value ([2]; pre dose) of the same molecule?
**A.** 31.28 pM

**Q.** What about the “glucose” value ([2]; pre dose) of the same molecule?
**A.** 107.17 mg/dL

**Q.** And the “insulin (pM)” value ([2]; pre dose)?
**A.** 269.67 pM

**Q.** What about the “development of hyperglycemia compared with vehicle” value ([2]; sixteen days, in words) of the same molecule?
**A.** no hyperglycemia had developed

**Q.** And the Emax ([3]; 1 h, normalized to alpha-MSH system max)?
**A.** 51 to 75%

**Q.** And the EC50 ([3]; AXOR109 transfected melanophores)?
**A.** 126 to 1000 nM

**Q.** What about the “Glucose excretion during the oral glucose tolerance test” value [4] of the same molecule?
**A.** less in the treated group as compared to the vehicle group

**Q.** And the “glucose in glucose tolerance test” value ([5]; day 1, 0.00 min)?
**A.** 103.67

**Q.** And the “glucose in glucose tolerance test” value ([5]; day 1, 5.00 min)?
**A.** 257.17

**Q.** What about the “glucose in glucose tolerance test” value ([5]; day 1, 15.00 min) of the same molecule?
**A.** 195.67

**Q.** What about the “glucose in glucose tolerance test” value ([5]; day 1, 30.00 min) of the same molecule?
**A.** 149.50

**Q.** And the “glucose in glucose tolerance test” value ([5]; day 1, 60.00 min)?
**A.** 126.83

**Q.** And the “glucose in glucose tolerance test” value ([5]; day 1, 90.00 min)?
**A.** 158.00

**Q.** What about the “glucose in glucose tolerance test” value ([5]; day 1, 120.00 min) of the same molecule?
**A.** 173.50

**Q.** And the “glucose in glucose tolerance test” value ([5]; day 1, −20.00 min)?
**A.** 107.17

**Q.** What about the “glucose in glucose tolerance test” value ([5]; day 3, 0.00 min) of the same molecule?
**A.** 123.00

**Q.** What about the “glucose in glucose tolerance test” value ([5]; day 3, 5.00 min) of the same molecule?
**A.** 307.40

**Q.** What about the “glucose in glucose tolerance test” value ([5]; day 3, 15.00 min) of the same molecule?
**A.** 254.80

**Q.** What about the “glucose in glucose tolerance test” value ([5]; day 3, 30.00 min) of the same molecule?
**A.** 182.20

**Q.** What about the “glucose in glucose tolerance test” value ([5]; day 3, 60.00 min) of the same molecule?
**A.** 143.60

**Q.** And the “glucose in glucose tolerance test” value ([5]; day 3, 90.00 min)?
**A.** 140.60

**Q.** What about the “glucose in glucose tolerance test” value ([5]; day 3, 120.00 min) of the same molecule?
**A.** 137.60

**Q.** What about the “glucose in glucose tolerance test” value ([5]; day 3, −20.00 min) of the same molecule?
**A.** 144.20

**Q.** And the “glucose in glucose tolerance test” value ([5]; day 9, 0.00 min)?
**A.** 129.00

**Q.** And the “glucose in glucose tolerance test” value ([5]; day 9, 5.00 min)?
**A.** 278.80

**Q.** What about the “glucose in glucose tolerance test” value ([5]; day 9, 15.00 min) of the same molecule?
**A.** 252.40

**Q.** And the “glucose in glucose tolerance test” value ([5]; day 9, 30.00 min)?
**A.** 154.80

**Q.** And the “glucose in glucose tolerance test” value ([5]; day 9, 60.00 min)?
**A.** 116.20

**Q.** What about the “glucose in glucose tolerance test” value ([5]; day 9, 90.00 min) of the same molecule?
**A.** 115.00

**Q.** What about the “glucose in glucose tolerance test” value ([5]; day 9, 120.00 min) of the same molecule?
**A.** 88.60

**Q.** What about the “glucose in glucose tolerance test” value ([5]; day 9, −20.00 min) of the same molecule?
**A.** 131.00

**Q.** And the “glucose in glucose tolerance test” value ([5]; day 16, 0.00 min)?
**A.** 174.20

**Q.** And the “glucose in glucose tolerance test” value ([5]; day 16, 5.00 min)?
**A.** 275.20

**Q.** What about the “glucose in glucose tolerance test” value ([5]; day 16, 15.00 min) of the same molecule?
**A.** 245.80

**Q.** And the “glucose in glucose tolerance test” value ([5]; day 16, 30.00 min)?
**A.** 238.80

**Q.** What about the “glucose in glucose tolerance test” value ([5]; day 16, 60.00 min) of the same molecule?
**A.** 215.40

**Q.** What about the “glucose in glucose tolerance test” value ([5]; day 16, 90.00 min) of the same molecule?
**A.** 217.60

**Q.** What about the “glucose in glucose tolerance test” value ([5]; day 16, 120.00 min) of the same molecule?
**A.** 212.60

**Q.** What about the “glucose in glucose tolerance test” value ([5]; day 16, −20.00 min) of the same molecule?
**A.** 169.00

**Q.** And the “development of hyperglycemia on day 16” value ([5]; chronic study, day 16, in words)?
**A.** hyperglycemia had developed in rats receiving vehicle, but not in the rats treated with Example 9
